Measured values from patent US7414107B2, “Pharmacologically active peptide conjugates having a reduced tendency towards enzymatic hydrolysis” (priority 1998, dated 2008).

Columns and labels:
osteoblast = experiment: Osteoblast retraction assay; format: cell-based, mice; settings: for Retraction assay % Retracted cells: 10 nM, 1 h, mouse calvaria osteoblasts; for activity relative to the mother compound hPTH(1-34): Osteoblast retraction assay
Description: Retraction assays were performed with osteoblast prepared from calvaria of 1-day old mice according to published protocols (Miller et al., 1976, Science 192:1340-1343). In brief, osteoblasts were seeded in serum-free minimal essential medium-α (αMEM) at a density of 3000 cells per cm^2 into 96-well tissue culture plates coated with 50 μg/ml of type I collagen in phosphate-buffered saline containing 0.1% bovine serum albumin (PBS). One day after plating, PTH compounds were added to a final concentration of 10 nM and incubation was carried out for 1 h. Cells were then fixed and stained with toluidine blue, and the number of retracted cells was counted by visual inspection.

leucine aminopeptidase = molecular target: T1, leucine aminopeptidase (Sus scrofa, UniProt P28839); experiment: Hydrolysis kinetics in leucine aminopeptidase solution; format: in vitro ADME, porcine; settings: 50 mM phosphate buffer pH 7.4, 37° C., leucine aminopeptidase 25 U/ml; for half-life: pig
T1 construct: purchased Sigma, UK type III-CP (catalogue number not given); host or cells: porcine kidney
T1 sequence (P28839 1-519): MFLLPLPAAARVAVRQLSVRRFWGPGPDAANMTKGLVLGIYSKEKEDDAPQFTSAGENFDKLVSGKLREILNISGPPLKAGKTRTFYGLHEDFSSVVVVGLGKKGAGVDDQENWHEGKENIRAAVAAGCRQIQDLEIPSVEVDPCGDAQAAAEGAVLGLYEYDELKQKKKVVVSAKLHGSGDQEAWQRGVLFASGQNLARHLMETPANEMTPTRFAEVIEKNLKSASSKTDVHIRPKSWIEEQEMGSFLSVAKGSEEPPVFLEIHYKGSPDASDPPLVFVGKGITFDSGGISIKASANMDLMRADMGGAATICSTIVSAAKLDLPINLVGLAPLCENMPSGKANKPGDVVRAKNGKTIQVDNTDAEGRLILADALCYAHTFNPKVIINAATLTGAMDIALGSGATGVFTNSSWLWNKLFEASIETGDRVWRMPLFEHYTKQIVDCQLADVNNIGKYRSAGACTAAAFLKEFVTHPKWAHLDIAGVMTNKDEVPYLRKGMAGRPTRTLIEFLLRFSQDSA
Description: (§1) Carboxypeptidase A (EC 3.4.17.1) type I from bovine pancreas, leucine aminopeptidase (EC 3.4.11.1) type III-CP from porcine kidney, α-chymotrypsin (EC […]) from bovine pancreas, and pepsin A (EC 3.4.23.1) from porcine stomach mucosa […] were obtained from Sigma, UK.
(§2) Gradient HPLC analysis of samples from in vitro kinetic measurements performed as described below was performed using a Hewlett Packard HP 1100 HPLC system consisting of a HP 1100 Binary Pump, a HPI 100 Autosampler, a HPI 100 Column Thermostat and a HP 1100 Variable Wavelength Detector. A Merck LiChroCART column (125×4 mm I.D.) and a LiChroCART precolumn (4×4 mm I.D.) packed with Lichrospher RP-18 (5 .μum particles) was used. The column was kept at 25° C. or 75° C. and the column effluent was measured by UV detection at 215 run. Separation of the peptide conjugates or the native peptides from degradation products and constituents of the reaction solutions was accomplished using gradient elution of the column with mixtures of mobile phase A (0.1 vol % TFA in water) and mobile phase B (0.085 vol % TFA in acetonitrile) at a flow rate of 1 ml/min.
(§3) The degradation of the peptide conjugate and the corresponding native peptide were studied at 37° C. in a 50 mM phosphate buffer solution at pH 7.4 containing leucine arninopeptidase (25 U/ml) or carboxypeptidase A (1 or 25 U/ml). Experiments were initiated by addition of an aliquot (100 μl) of a stock solution (1 mg/ml) of the peptide conjugate or the native peptide to 900 μl preheated enzyme solution giving a final concentration of ˜0.1 mg/ml (10^−5-10^−4M) of the peptide conjugate or the native peptide. The peptide/enzyme solution was kept at 37° C. using a SHT200D block heater from Stuart Scientific. At appropriate time intervals, samples of 100 μl were withdrawn from the peptide/enzyme solution, mixed thoroughly with 20 μl 25% TFA in acetonitrile in order to stop the enzymatic degradation process and analysed by HPLC as described above. Half-lives (t1/2) for the peptide conjugate and the corresponding native peptide in the enzyme solutions were calculated from plots of the natural logarithm to the concentration of the residual peptide (HPLC peak heights) against time using the formula t/2=1/kobs×ln(2), where kobs is the apparent first-order rate constant for the observed degradation.

carboxypeptidase A = molecular target: T2, carboxypeptidase A (Bos taurus, UniProt P00730); experiment: Hydrolysis kinetics in carboxypeptidase A solution; format: in vitro ADME, bovine; settings: 50 mM phosphate buffer pH 7.4, 37° C., carboxypeptidase A 1 U/ml
T2 construct: purchased Sigma, UK type I (catalogue number not given); host or cells: bovine pancreas
T2 sequence (P00730 111-419): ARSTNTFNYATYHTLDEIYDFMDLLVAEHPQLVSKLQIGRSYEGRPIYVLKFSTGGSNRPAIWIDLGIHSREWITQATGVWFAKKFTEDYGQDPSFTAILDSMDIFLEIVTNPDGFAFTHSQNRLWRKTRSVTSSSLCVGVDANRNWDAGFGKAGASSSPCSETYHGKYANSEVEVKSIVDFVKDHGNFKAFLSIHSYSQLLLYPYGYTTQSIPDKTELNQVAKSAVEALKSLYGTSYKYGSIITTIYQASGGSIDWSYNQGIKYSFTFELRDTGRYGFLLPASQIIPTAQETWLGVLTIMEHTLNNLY
Description: as §1, §2, §3

PTH (1-34)-antibody = settings: EIAS(h)-6101 from Peninsula Laboratories; cited from earlier work

CC[C@H](C)[C@H](NC(=O)[C@H](CCC(=O)O)NC(=O)[C@H](CO)NC(=O)[C@@H](NC(=O)[C@H](CO)NC(=O)[C@H](CCCCN)NC(=O)[C@H](CCCCN)NC(=O)[C@H](CCCCN)NC(=O)[C@H](CCCCN)NC(=O)[C@H](CCCCN)NC(=O)[C@@H](N)CCCCN)C(C)C)C(=O)N[C@@H](CCC(N)=O)C(=O)N[C@@H](CC(C)C)C(=O)N[C@@H](CCSC)C(=O)N[C@@H](Cc1c[nH]cn1)C(=O)N[C@@H](CC(N)=O)C(=O)N[C@@H](CC(C)C)C(=O)NCC(=O)N[C@@H](CCCCN)C(=O)N[C@@H](Cc1c[nH]cn1)C(=O)N[C@@H](CC(C)C)C(=O)N[C@@H](CC(N)=O)C(=O)N[C@@H](CO)C(=O)N[C@@H](CCSC)C(=O)N[C@@H](CCC(=O)O)C(=O)N[C@@H](CCCNC(=N)N)C(=O)N[C@H](C(=O)N[C@@H](CCC(=O)O)C(=O)N[C@@H](Cc1c[nH]c2ccccc12)C(=O)N[C@@H](CC(C)C)C(=O)N[C@@H](CCCNC(=N)N)C(=O)N[C@@H](CCCCN)C(=O)N[C@@H](CCCCN)C(=O)N[C@@H](CC(C)C)C(=O)N[C@@H](CCC(N)=O)C(=O)N[C@@H](CC(=O)O)C(=O)N[C@H](C(=O)N[C@@H](Cc1c[nH]cn1)C(=O)N[C@@H](CC(N)=O)C(=O)N[C@@H](Cc1ccccc1)C(=O)O)C(C)C)C(C)C [(Lys)6-PTH(1-34)(Human)-OH, H-(Lys)6-(-Ser-Val-Ser-Glu-Ile-Gln-Leu-Met-His-Asn-Leu -Gly-Lys-His-Leu-Asn-Ser-Met-Glu-Arg-Val-Glu-Trp-Leu-Arg-Lys-Lys-Leu-Gln -Asp-Val-His-Asn-Phe-OH]
Retraction assay % Retracted cells (osteoblast): 34.7%
activity relative to the mother compound hPTH(1-34) (osteoblast): 49%
pseudo first-order rate constant for the degradation (leucine aminopeptidase): 0.0035 min⁻¹
half-life (leucine aminopeptidase): 3.3 h

CC[C@H](C)[C@H](NC(=O)[C@H](CCC(=O)O)NC(=O)[C@H](CO)NC(=O)[C@@H](NC(=O)[C@@H](N)CO)C(C)C)C(=O)N[C@@H](CCC(N)=O)C(=O)N[C@@H](CC(C)C)C(=O)N[C@@H](CCSC)C(=O)N[C@@H](Cc1c[nH]cn1)C(=O)N[C@@H](CC(N)=O)C(=O)N[C@@H](CC(C)C)C(=O)NCC(=O)N[C@@H](CCCCN)C(=O)N[C@@H](Cc1c[nH]cn1)C(=O)N[C@@H](CC(C)C)C(=O)N[C@@H](CC(N)=O)C(=O)N[C@@H](CO)C(=O)N[C@@H](CCSC)C(=O)N[C@@H](CCC(=O)O)C(=O)N[C@@H](CCCNC(=N)N)C(=O)N[C@H](C(=O)N[C@@H](CCC(=O)O)C(=O)N[C@@H](Cc1c[nH]c2ccccc12)C(=O)N[C@@H](CC(C)C)C(=O)N[C@@H](CCCNC(=N)N)C(=O)N[C@@H](CCCCN)C(=O)N[C@@H](CCCCN)C(=O)N[C@@H](CC(C)C)C(=O)N[C@@H](CCC(N)=O)C(=O)N[C@@H](CC(=O)O)C(=O)N[C@H](C(=O)N[C@@H](Cc1c[nH]cn1)C(=O)N[C@@H](CC(N)=O)C(=O)N[C@@H](Cc1ccccc1)C(=O)N[C@@H](CCCCN)C(=O)N[C@@H](CCCCN)C(=O)N[C@@H](CCCCN)C(=O)N[C@@H](CCCCN)C(=O)N[C@@H](CCCCN)C(=O)N[C@@H](CCCCN)C(=O)O)C(C)C)C(C)C [PTH(1-34)(Human)-(Lys)6-OH, H-Ser-Val-Ser-Glu-Ile-Gln-Leu-Met-His-Asn-Leu-Gly-Lys -His-Leu-Asn-Ser-Met-Glu-Arg-Val-Glu-Trp-Leu-Arg-Lys-Lys-Leu-Gln-Asp-Val -His-Asn-Phe-Lys6-OH]
half-life (carboxypeptidase A): 0.783 h
pseudo first-order rate constant for the degradation (carboxypeptidase A): 0.015 min⁻¹
Retraction assay % Retracted cells (osteoblast): 37.4%
activity relative to the mother compound hPTH(1-34) (osteoblast): 55%
pseudo first-order rate constant for the degradation (leucine aminopeptidase): 0.0012 min⁻¹
half-life (leucine aminopeptidase): 9.63 h

hPTH(1-38): human PTH fragment listed in the EIA kit specificity (SVSEIQLMHNLGKHLNSMERVEWLRKKLQDVHNFVALG; Parathyroid hormone; UniProt P01270 32-69, looked up, fragment)
Specificity of the assay (PTH (1-34)-antibody): 100%

hPTH(1-44): human PTH fragment listed in the EIA kit specificity (SVSEIQLMHNLGKHLNSMERVEWLRKKLQDVHNFVALGAPLAPR; Parathyroid hormone; UniProt P01270 32-75, looked up, fragment)
Specificity of the assay (PTH (1-34)-antibody): 0%

hPTH(39-68): human PTH fragment listed in the EIA kit specificity (APLAPRDAGSQRPRKKEDNVLVESHEKSLG; Parathyroid hormone; UniProt P01270 70-99, looked up, fragment)
Specificity of the assay (PTH (1-34)-antibody): 0%

ratPTH(1-34): rat PTH fragment listed in the EIA kit specificity (AVSEIQLMHNLGKHLASVERMQWLRKKLQDVHNF; Parathyroid hormone; UniProt P04089 32-65, looked up, fragment)
Specificity of the assay (PTH (1-34)-antibody): 0%

B1: hPTH(1-84): full-length human PTH listed in the EIA kit specificity (protein, UniProt P01270 32-115, looked up)
Parathyroid hormone: SVSEIQLMHNLGKHLNSMERVEWLRKKLQDVHNFVALGAPLAPRDAGSQRPRKKEDNVLVESHEKSLGEADKADVNVLTKAKSQ
modifications: Parathyroid hormone
Specificity of the assay (PTH (1-34)-antibody): 0%
